Results on one compound are retold here after ChEMBL document CHEMBL3886288, “Thieno[3,2-D]pyrimidine derivatives having inhibitory activity for protein kinases” (2015).

For experiment [1], the target named is RAF proto-oncogene serine/threonine-protein kinase (Homo sapiens, UniProt P04049, Y340D/Y341D). Nature of the experiment: (§1) Kinase Activity: The compounds prepared in Examples were tested for inhibitory activity against three subtypes of RAF, i.e., RAF1 Y340D Y341D (C-RAF), B-RAF normal type and B-RAF^V600E using Kinase Profiling Service (Invitrogen, U.S.) according to the manufacturer's instructions. The levels of enzymatic inhibition of the compounds were calculated as percent inhibition at various concentrations.

Experiment [2] has as its target Serine/threonine-protein kinase B-raf (Homo sapiens, UniProt P15056, V600E). Described as §1.
Experiment [3] concerns the target Serine/threonine-protein kinase B-raf (Homo sapiens, UniProt P15056). The experiment is described as §1.
In experiment [4] the target is Macrophage colony-stimulating factor 1 receptor (Homo sapiens, UniProt P07333). Nature of the experiment: Kinase Activity: The compounds prepared in Examples were tested for inhibitory activity against FMS, DDR1 and DDR2 kinases using Kinase Screening and Profiling Service (Invitrogen, U.S.).

In general, IC50 refers to the concentration at which inhibition is half-maximal.

Molecules are shown by their SMILES.

Serine/threonine-protein kinase B-raf (Homo sapiens, UniProt P15056), sequence (P15056 whole entry): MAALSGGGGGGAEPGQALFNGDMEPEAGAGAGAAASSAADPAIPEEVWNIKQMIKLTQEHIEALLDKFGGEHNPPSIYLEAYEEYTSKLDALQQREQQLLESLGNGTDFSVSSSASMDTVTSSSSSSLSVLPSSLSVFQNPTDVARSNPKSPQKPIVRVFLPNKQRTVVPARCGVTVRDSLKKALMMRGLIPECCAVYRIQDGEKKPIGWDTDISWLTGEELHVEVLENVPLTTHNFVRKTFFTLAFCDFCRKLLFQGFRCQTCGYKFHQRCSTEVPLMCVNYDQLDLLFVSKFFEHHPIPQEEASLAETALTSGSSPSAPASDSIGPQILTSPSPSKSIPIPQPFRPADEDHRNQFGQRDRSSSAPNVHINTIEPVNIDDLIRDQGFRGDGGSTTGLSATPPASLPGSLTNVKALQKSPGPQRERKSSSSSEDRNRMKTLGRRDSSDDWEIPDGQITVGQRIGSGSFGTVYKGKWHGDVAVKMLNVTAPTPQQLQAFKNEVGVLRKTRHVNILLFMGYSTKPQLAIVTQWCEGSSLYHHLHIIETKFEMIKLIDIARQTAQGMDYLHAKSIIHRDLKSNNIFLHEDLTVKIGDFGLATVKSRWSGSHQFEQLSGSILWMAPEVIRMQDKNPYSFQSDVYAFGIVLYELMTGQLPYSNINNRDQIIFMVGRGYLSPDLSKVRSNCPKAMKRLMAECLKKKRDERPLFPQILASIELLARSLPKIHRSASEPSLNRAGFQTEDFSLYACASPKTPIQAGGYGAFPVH
Serine/threonine-protein kinase B-raf (Homo sapiens, UniProt P15056, V600E), sequence (P15056 2-766 V600E limits assumed): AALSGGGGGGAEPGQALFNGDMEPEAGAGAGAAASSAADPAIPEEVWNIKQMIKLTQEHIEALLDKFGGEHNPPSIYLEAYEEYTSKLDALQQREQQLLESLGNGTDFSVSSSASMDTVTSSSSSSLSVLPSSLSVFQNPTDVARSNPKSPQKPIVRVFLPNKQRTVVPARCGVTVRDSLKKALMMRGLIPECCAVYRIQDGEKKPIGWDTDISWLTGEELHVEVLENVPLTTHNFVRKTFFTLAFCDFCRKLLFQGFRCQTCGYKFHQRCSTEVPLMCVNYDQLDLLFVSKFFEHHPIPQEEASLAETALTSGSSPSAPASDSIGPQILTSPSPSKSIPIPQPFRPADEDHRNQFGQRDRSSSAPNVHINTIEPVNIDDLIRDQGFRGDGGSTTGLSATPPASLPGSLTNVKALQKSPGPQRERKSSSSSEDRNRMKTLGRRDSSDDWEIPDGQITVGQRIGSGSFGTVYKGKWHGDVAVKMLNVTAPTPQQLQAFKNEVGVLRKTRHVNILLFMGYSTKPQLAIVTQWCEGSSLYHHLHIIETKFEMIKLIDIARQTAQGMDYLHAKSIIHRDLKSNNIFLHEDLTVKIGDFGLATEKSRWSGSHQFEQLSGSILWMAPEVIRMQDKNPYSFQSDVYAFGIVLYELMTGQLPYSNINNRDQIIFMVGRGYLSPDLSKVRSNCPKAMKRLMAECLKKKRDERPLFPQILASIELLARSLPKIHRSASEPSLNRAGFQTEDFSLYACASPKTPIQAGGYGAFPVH
Macrophage colony-stimulating factor 1 receptor, sequence (P07333 whole entry): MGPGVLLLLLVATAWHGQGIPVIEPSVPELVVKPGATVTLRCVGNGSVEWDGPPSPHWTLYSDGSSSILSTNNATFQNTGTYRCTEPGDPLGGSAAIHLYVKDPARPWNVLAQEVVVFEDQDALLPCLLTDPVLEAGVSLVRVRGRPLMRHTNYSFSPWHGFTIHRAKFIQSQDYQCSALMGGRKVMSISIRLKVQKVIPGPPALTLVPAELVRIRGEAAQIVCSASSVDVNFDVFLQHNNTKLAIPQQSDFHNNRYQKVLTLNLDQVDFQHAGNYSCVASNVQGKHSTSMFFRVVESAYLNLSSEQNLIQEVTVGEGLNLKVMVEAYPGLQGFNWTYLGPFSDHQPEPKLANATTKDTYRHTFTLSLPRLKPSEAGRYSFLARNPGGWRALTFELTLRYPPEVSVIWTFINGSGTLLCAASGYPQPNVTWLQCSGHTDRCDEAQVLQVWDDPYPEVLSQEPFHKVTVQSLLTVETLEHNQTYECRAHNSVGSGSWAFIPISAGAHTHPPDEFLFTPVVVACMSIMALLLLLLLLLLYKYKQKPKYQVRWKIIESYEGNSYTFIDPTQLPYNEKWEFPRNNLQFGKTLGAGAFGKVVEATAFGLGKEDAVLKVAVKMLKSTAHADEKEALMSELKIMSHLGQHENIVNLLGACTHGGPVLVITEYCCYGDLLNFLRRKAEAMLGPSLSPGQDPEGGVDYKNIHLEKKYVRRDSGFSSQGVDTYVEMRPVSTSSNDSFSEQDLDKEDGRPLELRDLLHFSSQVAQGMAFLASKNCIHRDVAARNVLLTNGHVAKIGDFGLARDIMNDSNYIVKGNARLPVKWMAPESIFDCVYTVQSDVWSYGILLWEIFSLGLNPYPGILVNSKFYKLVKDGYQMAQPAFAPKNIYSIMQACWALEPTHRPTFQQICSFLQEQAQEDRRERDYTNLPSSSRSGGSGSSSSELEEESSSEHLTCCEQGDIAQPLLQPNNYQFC
RAF proto-oncogene serine/threonine-protein kinase, sequence (P04049 whole entry Y340D/Y341D): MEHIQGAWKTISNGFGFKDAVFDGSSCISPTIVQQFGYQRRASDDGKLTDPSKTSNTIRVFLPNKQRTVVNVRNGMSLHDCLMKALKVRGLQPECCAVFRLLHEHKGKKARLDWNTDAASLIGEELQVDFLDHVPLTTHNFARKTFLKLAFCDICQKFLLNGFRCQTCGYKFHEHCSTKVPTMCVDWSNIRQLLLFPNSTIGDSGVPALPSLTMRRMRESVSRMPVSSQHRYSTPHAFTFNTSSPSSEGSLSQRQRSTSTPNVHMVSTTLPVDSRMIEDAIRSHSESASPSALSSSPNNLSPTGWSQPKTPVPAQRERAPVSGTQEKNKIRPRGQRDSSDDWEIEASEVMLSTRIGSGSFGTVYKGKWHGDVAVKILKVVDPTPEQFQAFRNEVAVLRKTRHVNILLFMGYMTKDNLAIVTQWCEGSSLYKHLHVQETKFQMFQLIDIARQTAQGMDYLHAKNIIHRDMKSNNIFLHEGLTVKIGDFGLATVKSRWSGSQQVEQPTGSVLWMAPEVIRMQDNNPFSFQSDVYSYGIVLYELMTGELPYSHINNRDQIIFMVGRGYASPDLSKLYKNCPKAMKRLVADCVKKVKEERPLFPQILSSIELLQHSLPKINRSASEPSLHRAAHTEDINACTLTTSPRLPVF

For the compound `Cc1ccc2c(Nc3cccc(Cl)c3)nccc2c1NC(=O)c1csc2c(N)ncnc12`, the IC50 in experiment [1] was 5 nM; in experiment [2], 9 nM; in experiment [3], 66 nM; in experiment [4] it was 57 nM.
